For 23 molecules, TGI and GI50 results are on record in PubChem BioAssay (NCI).

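Compound exposure: 48 hours, 5 concentrations, 96-well plates. At the GI50, growth is halved. TGI marks complete inhibition of growth.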 Where a SMILES comes first, the peptide text is derived from it. [ ]: non-standard residue; d: D form. Phe(4-Cl) = N[CH](Cc1ccc(Cl)cc1)C(=O)O Some results are limits rather than exact numbers.

What all share (assay): growth of human tumour cells (NCI), 48 h
For assay [1], the system named is SF-268 CNS.
For assay [2], the system named is NCI-H460 lung.
Assay [3] deals with MALME-3M melanoma.
Assay [4] has as its system NCI-H23 lung.
Assay [5] concerns NCI-H226 lung.
Assay [6] has as its system OVCAR-3 ovarian.
In assay [7] the test system is A549 NSCLC.
Assay [8] concerns OVCAR-5 ovarian.
The test system of assay [9] is 786-0 renal.
In assay [10] the test system is RXF 393 renal.

For the molecule `CN(C)P(=O)(/C(N)=N/Nc1ccc([N+](=O)[O-])cc1)N(C)C`, the TGI in assay [1], in assay [2], in assay [3], in assay [4], in [5] and in assay [6] was over 100 µM each time. Also, the TGI in [7], in assay [8] and in assay [9] was over 100 µM throughout.

Take `O=C(O)CP(=S)(S)c1ccccc1` (configuration not stated): the TGI in [1], in [10], in assay [2], in assay [3], in assay [4] and in assay [5] was over 100 µM in each case. For the same molecule, the TGI in assay [7] and in [9] was over 100 µM in each case.

In the case of `O=C1NC(=O)c2ccc([N+](=O)[O-])c3cccc1c23`, the TGI in assay [1] was determined as 62 µM; in assay [10], 29.1 µM; in assay [2] it was 29.7 µM; in assay [4] it was 33.7 µM; in [5] it was 43.6 µM; in [7], 43.9 µM. For the same molecule, the TGI in [8] was 32.3 µM; in [9], 27 µM.

As to `CC/C=C\C[C@@H]1C/C=C2/C(=O)C=C[C@H]2C/C=C\CCCC(=O)O1`, the GI50 in [1] was 1.34 µM; in assay [10], 0.492 µM; in assay [2] it was 2.67 µM; in assay [3], 1.18 µM; in assay [4] it was 0.993 µM; in [6], 0.428 µM. Moreover, the GI50 in assay [7] was 0.526 µM; in [8], 1.51 µM; in assay [9] it was 0.818 µM. The TGI in assay [1] was found to be 3.67 µM; in assay [10], 1.73 µM; in assay [2] it was 7.45 µM; in assay [3], 4.65 µM; in [4], 3.2 µM; in assay [6] it was 1.38 µM. Also, the TGI in [7] was determined as 2.2 µM; in [8], 3.78 µM; in assay [9] it was 2.18 µM.

Consider `CCOC(=O)CN=c1nc(SC)sc2c(C(=O)OCC)nc(Sc3ccccc3)n12`, for which the TGI in assay [1], in [3], in assay [5], in [6], in assay [8] and in [9] was over 100 µM in each case.

Regarding `CC12CCCC(O)C1CCC1=CC3(CCC12)SCCS3` (configuration not stated), the TGI in assay [1], in assay [3], in assay [4], in [6], in [7] and in assay [9] was over 10 µM throughout.

As for `CCOC(=O)c1cc(/C(=N\O)c2cc(OC)c(OC)c(OC)c2)n2cc(C)cc(C)c12`, the GI50 in [1] is 3.9 µM; in assay [10], 1.95 µM; in assay [2] it was 2.76 µM; in assay [3], 1.44 µM; in [4], 2.81 µM; in assay [6] it was 1.74 µM. For the same molecule, the GI50 in assay [7] is 3.99 µM; in assay [9], 3.01 µM. The TGI is over 100 µM in [1]; 5.26 µM in assay [10]; 7.64 µM in assay [2]; 3.98 µM in assay [3]; over 100 µM in assay [4]; 4.33 µM in [6]. Further, the TGI is over 100 µM in [7] and 10 µM in assay [9].

With `CC1=C2C(=O)O[C@@H](c3ccoc3)[C@]2(C)CCC1`, the TGI in assay [1], in assay [2], in assay [3], in [4], in assay [5] and in assay [6] was over 100 µM in each case. The TGI in assay [7], in assay [8] and in assay [9] was over 100 µM in each case.

Take `CCc1[nH]c(=O)nc(N)c1-c1ccc(N2CCCCC2)c([N+](=O)[O-])c1`: the TGI in assay [1], in [10], in [2], in assay [4], in [5] and in [6] was over 100 µM in each case. Also, the TGI in assay [7], in assay [8] and in [9] was over 100 µM each time.

Turning to `CC(=O)OC1=NN=C2COC(c3ccccc3OC(C)=O)=NN2C1`, the TGI in assay [1], in assay [10], in assay [2], in assay [3], in assay [4] and in [6] was over 50 µM in each case. Moreover, the TGI in assay [7], in assay [8] and in assay [9] was over 50 µM in each case.

In the case of `CCN(CC)CCN1CC(O)=C(c2nc(-c3ccc(Cl)cc3)cs2)C1=N`, the GI50 in assay [1] is 1.87 µM; in assay [2], 2.04 µM; in [3], 1.69 µM; in [4], 7.39 µM; in assay [5] it was 1.85 µM; in assay [6], 4.06 µM. Besides, the GI50 is 3.62 µM in [7], 6.38 µM in assay [8] and 1.62 µM in assay [9]. Also, the TGI in [1] was 3.93 µM; in assay [2], 4.29 µM; in [3], 3.22 µM; in assay [4], 49.9 µM; in assay [5], 3.88 µM; in assay [6] it was 20.4 µM. The TGI was found to be 17.8 µM in assay [7], 31.3 µM in [8] and 3.19 µM in assay [9].

Take `COc1ccc(-c2cn3ccsc3n2)cc1`: the TGI in [1], in assay [2], in [3], in [4], in [5] and in [6] was over 100 µM in each case. Further, the TGI in assay [7], in [8] and in assay [9] was over 100 µM throughout.

For the molecule `O=C(c1cccc(O)c1O)c1cn(Cc2ccc(F)cc2)c2cccc(O)c12`, the GI50 is 3.51 µM in assay [1]; 2.01 µM in assay [2]; 4.83 µM in [3]; 4.12 µM in assay [4]; 15.9 µM in assay [5]; 3.27 µM in [6]. The GI50 in assay [7] is 3.31 µM; in assay [8] it was 9.04 µM; in assay [9], 7.46 µM. The TGI turned out to be 16.2 µM in assay [1]; 11 µM in [2]; 22 µM in assay [3]; 19.8 µM in assay [4]; 43.8 µM in assay [5]; 18.1 µM in assay [6]. Moreover, the values for the TGI in [7], in assay [8] and in [9] were 16.7 µM, 26.4 µM and 20.8 µM, respectively.

For the molecule `COc1ccc(N2C(=O)C3c4[nH]c5ccc(C)cc5c4C4CCC(C(C)(C)C)CC4C3C2=O)cc1` (configuration not stated), the TGI in assay [1] was determined as 64.5 µM; in [10] it was 38.8 µM; in assay [2] it was 49.3 µM; in [4] it was 86.5 µM; in assay [5], 48.9 µM; in assay [6] it was 32 µM. The TGI in [7] was over 100 µM; in assay [9], 48.7 µM.

Consider `O=C(O)CC1OCC=C2CN3CCC45c6ccccc6NC4C1C2CC35` (configuration not stated), for which the TGI in assay [1], in assay [10], in assay [2], in assay [4], in [5] and in assay [6] was over 100 µM each time. The TGI in assay [7], in [8] and in assay [9] was over 100 µM in each case.

Take `Nc1ccc(/C=C/c2ccnc3ccccc23)cc1`: the TGI in [1] was 47.5 µM; in [2] it was 49.1 µM; in assay [3], 97.3 µM; in assay [4], 50.1 µM; in assay [5] it was 47.7 µM; in assay [6] it was 48.7 µM. Also, the TGI is 71.4 µM in [7], 60.9 µM in assay [8] and 57.6 µM in [9].

With `CCOC(=O)c1c(CN2CCN(c3ccccc3)CC2)n(-c2ccccc2)c2cc(Br)c(O)cc12`, the GI50 in assay [1] was 9.63 µM; in assay [2] it was 3.61 µM; in assay [3], 16.5 µM; in [4] it was 14.9 µM; in assay [5], 15.4 µM; in assay [6], 13 µM. Besides, the values for the GI50 in assay [7], in [8] and in [9] were 3.58 µM, 9.98 µM and 5.23 µM, respectively. Also, the TGI in assay [1] was determined as 41.4 µM; in assay [2], 21.3 µM; in assay [3], 40.1 µM; in [4] it was 38.3 µM; in assay [5], 30.9 µM; in assay [6], 32.1 µM. Moreover, the TGI in [7] was over 100 µM; in assay [8] it was 44.8 µM; in assay [9], 21.5 µM.

`Cc1ccc(/C(=C/C=C(C#N)C#N)Sc2ccc(Cl)cc2)cc1`: the GI50 in [1] was 9.8 µM; in [10] it was 11.9 µM; in assay [2], 9.24 µM; in assay [3], 12.2 µM; in assay [4], 9.54 µM; in [6], 2.31 µM. Besides, the GI50 in assay [7] is 12.4 µM; in assay [8] it was 11.4 µM; in assay [9], 1.9 µM. Besides, the TGI in assay [1] came out at 35.7 µM; in [10], 39.2 µM; in assay [2] it was 29.7 µM; in assay [3], 30.5 µM; in assay [4] it was 23.4 µM; in assay [6], 9.34 µM. In addition, the figures for the TGI in [7], in assay [8] and in assay [9] were 28 µM, 25.5 µM and 4.57 µM, respectively.

Consider `CCS(=O)(=O)c1ccc(OC)c(Nc2ncc(-c3cccc(C(C)=O)c3)o2)c1`, for which the GI50 in assay [1] was 17.9 µM; in assay [10] it was 3.21 µM; in [2], over 25 µM; in assay [4], over 25 µM; in [5] it was 2.69 µM; in assay [6], over 25 µM. Moreover, the GI50 in assay [7], in assay [8] and in assay [9] was over 25 µM throughout. The TGI in [1] is over 25 µM; in [10], 16.6 µM; in [2], over 25 µM; in assay [4], over 25 µM; in [5] it was over 25 µM; in assay [6], over 25 µM. Moreover, the TGI in assay [7], in assay [8] and in assay [9] was over 25 µM in each case.

`COc1ccc(C(=O)c2cc(C)c(OC)c(C)c2)c(OC)c1N(C(=O)C(Cl)Cl)C(=O)C(Cl)Cl`: the GI50 in assay [1] is 1.01 µM; in assay [2], 0.0381 µM; in assay [3], 0.129 µM; in [4], 0.0909 µM; in [5] it was 0.0468 µM; in assay [6] it was 0.0357 µM. Moreover, the GI50 was 0.0804 µM in assay [7], 0.111 µM in assay [8] and 0.0455 µM in [9]. In addition, the TGI in assay [1] was over 100 µM; in assay [2] it was 15.7 µM; in assay [3], over 100 µM; in assay [4], over 100 µM; in assay [5] it was 0.468 µM; in assay [7], over 100 µM. Besides, the TGI in [8] and in assay [9] was over 100 µM in each case.

As for `CC(O)C(NC(=O)C(Cc1ccccc1)NC(=O)C(NC(=O)C(CCCCN)NC(=O)C(Cc1c[nH]c2ccccc12)NC(=O)C(Cc1ccc(O)cc1)NC(=O)C(Cc1ccc(Cl)cc1)NC(=O)C(N)Cc1ccccc1)C(C)O)C(N)=O` (configuration not stated) (H-F[Phe(4-Cl)]YWKTFT-NH2; configuration not given here), the TGI is 30.3 µM in assay [10]; 32.5 µM in assay [2]; 41.2 µM in [4]; 36.2 µM in assay [6]; 36 µM in assay [7]; 41.3 µM in [9].

As to `COC(=O)C(=O)C(C(=O)C(=O)Nc1ccccc1C(N)=O)c1nc2ccc(Cl)cc2[nH]c1=O` (configuration not stated), the TGI in assay [1], in assay [10], in assay [2], in assay [4], in assay [5] and in assay [6] was over 100 µM each time. In addition, the TGI in assay [7], in assay [8] and in [9] was over 100 µM in each case.

Turning to `NC(CC(=O)OCc1ccccc1)C(=O)OCc1ccccc1` (configuration not stated), the TGI in assay [1], in assay [2], in assay [4], in assay [6], in [7] and in assay [8] was over 100 µM in each case. The same molecule yielded a TGI in [9] of over 100 µM.
